The text below walks through data of ChEMBL document CHEMBL5291721, “A preclinical secondary pharmacology resource illuminates target-adverse drug reaction associations of marketed drugs” (Nat Commun, 2023).

Assay [1] addresses T1, Alpha-1A adrenergic receptor (Homo sapiens, UniProt P35348).
T1 sequence (P35348 whole entry): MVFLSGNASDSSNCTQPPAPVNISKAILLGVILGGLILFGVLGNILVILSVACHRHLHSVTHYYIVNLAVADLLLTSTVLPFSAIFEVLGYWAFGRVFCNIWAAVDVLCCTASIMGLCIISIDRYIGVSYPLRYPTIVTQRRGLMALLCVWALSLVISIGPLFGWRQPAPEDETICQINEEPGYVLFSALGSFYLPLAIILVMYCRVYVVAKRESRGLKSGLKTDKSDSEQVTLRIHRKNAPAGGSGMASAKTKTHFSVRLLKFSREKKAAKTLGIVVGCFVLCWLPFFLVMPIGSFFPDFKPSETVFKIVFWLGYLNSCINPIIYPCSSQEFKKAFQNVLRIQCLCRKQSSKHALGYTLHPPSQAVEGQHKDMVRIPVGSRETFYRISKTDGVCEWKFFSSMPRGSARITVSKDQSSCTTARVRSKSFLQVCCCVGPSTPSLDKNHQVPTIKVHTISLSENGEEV
In kind it is functional, cell-based.

Assay [2] has as its target Beta-2 adrenergic receptor (Homo sapiens, UniProt P07550).
The target in assay [3] is Voltage-dependent L-type calcium channel subunit alpha-1C (Rattus norvegicus, UniProt P22002). In kind it is functional.
Assay [4] has as its target T2, Muscarinic acetylcholine receptor M1 (Homo sapiens, UniProt P11229).
T2 sequence (P11229 whole entry): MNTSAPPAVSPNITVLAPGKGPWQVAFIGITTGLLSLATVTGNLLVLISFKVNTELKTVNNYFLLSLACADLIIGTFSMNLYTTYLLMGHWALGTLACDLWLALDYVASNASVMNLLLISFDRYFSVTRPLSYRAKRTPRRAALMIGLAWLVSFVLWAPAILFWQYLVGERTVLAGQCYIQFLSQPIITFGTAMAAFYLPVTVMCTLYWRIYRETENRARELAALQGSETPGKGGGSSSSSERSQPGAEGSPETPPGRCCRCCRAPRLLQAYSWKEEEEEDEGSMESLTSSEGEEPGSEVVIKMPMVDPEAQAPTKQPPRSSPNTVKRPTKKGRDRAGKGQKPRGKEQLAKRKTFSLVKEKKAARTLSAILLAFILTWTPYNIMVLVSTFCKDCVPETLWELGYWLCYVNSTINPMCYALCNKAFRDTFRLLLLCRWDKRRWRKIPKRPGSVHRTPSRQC
The assay is classed as functional, cell-based.

Assay [5] addresses T3, Alpha-2A adrenergic receptor (Homo sapiens, UniProt P08913).
T3 sequence (P08913 whole entry): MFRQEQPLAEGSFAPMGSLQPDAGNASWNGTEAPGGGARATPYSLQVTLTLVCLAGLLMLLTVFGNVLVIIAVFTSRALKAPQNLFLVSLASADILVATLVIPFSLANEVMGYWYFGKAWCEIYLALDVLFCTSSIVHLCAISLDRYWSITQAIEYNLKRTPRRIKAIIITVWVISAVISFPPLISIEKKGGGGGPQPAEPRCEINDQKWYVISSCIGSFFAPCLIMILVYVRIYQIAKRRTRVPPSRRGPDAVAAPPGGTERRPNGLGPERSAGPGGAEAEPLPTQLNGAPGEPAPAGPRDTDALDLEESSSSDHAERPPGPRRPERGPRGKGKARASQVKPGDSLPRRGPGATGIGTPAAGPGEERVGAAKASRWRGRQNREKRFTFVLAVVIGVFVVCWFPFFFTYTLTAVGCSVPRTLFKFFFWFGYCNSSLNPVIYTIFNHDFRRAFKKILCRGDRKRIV

For assay [6], the target named is T4, Alpha-2B adrenergic receptor (Homo sapiens, UniProt P18089).
T4 sequence (P18089 whole entry): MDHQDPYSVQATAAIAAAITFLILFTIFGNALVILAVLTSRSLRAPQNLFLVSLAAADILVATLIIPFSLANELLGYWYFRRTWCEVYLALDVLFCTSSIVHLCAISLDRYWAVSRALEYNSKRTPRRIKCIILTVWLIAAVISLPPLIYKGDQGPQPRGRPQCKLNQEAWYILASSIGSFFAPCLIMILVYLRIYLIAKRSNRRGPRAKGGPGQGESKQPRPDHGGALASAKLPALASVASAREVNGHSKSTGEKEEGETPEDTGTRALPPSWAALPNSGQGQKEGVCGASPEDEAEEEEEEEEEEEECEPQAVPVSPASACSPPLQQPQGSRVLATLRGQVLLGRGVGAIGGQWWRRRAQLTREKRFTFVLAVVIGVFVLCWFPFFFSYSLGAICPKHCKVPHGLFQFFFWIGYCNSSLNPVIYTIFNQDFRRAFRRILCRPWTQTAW

The target in assay [7] is Muscarinic acetylcholine receptor M3 (Homo sapiens, UniProt P20309).

Where only a bound is given, the exact number is not on record here.
Also: assay procedure not described here.

Sequence of Beta-2 adrenergic receptor (P07550 whole entry): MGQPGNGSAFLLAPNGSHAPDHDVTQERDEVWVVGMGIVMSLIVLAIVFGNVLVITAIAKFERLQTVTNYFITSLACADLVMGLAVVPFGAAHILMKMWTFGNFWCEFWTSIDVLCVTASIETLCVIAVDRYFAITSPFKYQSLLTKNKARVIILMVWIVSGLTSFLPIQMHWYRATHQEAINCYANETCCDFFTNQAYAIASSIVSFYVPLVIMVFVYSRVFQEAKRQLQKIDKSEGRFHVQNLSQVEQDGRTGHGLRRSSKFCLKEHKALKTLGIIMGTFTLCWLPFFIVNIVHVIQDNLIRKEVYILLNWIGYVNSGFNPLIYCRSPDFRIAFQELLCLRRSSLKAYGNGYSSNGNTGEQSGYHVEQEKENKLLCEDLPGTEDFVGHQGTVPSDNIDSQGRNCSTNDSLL
Sequence of Voltage-dependent L-type calcium channel subunit alpha-1C (P22002 whole entry): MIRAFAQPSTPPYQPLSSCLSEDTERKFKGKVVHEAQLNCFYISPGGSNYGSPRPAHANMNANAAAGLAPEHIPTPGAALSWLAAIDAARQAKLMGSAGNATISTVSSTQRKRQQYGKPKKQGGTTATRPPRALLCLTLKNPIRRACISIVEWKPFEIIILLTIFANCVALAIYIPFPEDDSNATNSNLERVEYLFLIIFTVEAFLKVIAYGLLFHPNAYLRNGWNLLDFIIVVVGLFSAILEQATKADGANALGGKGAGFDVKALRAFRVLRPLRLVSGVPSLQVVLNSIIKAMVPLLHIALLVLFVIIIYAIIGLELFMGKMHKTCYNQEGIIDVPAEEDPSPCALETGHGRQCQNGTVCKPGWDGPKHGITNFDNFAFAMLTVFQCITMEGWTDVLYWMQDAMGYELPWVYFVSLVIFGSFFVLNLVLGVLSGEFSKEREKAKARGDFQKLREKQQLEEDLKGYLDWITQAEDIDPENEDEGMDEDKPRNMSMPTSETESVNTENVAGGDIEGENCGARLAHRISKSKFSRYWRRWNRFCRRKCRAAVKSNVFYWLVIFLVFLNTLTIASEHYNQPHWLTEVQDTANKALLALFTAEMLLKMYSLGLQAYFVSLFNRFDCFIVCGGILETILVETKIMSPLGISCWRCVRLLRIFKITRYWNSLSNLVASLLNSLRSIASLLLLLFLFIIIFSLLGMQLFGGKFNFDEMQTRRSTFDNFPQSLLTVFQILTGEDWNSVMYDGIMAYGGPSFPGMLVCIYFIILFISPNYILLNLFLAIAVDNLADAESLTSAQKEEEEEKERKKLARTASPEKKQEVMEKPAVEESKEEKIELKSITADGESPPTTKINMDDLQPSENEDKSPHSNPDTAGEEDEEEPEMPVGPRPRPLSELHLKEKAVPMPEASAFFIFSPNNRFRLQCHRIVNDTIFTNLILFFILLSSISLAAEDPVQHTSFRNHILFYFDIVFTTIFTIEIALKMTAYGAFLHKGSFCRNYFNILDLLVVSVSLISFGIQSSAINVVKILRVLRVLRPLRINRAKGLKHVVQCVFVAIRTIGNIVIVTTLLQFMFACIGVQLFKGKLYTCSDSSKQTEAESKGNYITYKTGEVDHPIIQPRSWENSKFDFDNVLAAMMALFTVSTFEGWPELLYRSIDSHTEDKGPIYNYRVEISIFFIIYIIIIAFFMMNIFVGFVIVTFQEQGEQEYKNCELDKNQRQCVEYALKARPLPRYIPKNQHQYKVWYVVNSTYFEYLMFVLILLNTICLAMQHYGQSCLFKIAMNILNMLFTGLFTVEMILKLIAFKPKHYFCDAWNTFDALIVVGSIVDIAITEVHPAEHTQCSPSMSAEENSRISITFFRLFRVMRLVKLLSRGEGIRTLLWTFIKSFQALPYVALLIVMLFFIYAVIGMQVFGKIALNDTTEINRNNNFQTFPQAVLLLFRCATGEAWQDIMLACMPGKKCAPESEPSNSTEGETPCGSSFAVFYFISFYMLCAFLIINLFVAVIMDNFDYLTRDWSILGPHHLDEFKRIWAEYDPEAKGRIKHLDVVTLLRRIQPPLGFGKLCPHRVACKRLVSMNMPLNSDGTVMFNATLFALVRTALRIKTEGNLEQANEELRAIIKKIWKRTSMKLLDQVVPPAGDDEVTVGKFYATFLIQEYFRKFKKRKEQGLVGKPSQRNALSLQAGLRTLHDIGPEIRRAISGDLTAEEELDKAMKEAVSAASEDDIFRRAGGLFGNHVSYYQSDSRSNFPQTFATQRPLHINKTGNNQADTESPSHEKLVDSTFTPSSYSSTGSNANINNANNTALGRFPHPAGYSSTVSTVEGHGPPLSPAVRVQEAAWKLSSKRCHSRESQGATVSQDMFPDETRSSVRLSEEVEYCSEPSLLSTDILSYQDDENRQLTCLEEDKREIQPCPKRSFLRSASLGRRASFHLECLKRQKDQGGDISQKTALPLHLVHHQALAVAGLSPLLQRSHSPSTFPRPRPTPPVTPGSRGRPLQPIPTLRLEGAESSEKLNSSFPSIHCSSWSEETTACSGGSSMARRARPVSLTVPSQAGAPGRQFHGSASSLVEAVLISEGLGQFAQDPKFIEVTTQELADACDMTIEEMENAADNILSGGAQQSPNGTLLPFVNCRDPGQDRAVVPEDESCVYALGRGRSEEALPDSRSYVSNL
Sequence of Muscarinic acetylcholine receptor M3 (P20309 whole entry): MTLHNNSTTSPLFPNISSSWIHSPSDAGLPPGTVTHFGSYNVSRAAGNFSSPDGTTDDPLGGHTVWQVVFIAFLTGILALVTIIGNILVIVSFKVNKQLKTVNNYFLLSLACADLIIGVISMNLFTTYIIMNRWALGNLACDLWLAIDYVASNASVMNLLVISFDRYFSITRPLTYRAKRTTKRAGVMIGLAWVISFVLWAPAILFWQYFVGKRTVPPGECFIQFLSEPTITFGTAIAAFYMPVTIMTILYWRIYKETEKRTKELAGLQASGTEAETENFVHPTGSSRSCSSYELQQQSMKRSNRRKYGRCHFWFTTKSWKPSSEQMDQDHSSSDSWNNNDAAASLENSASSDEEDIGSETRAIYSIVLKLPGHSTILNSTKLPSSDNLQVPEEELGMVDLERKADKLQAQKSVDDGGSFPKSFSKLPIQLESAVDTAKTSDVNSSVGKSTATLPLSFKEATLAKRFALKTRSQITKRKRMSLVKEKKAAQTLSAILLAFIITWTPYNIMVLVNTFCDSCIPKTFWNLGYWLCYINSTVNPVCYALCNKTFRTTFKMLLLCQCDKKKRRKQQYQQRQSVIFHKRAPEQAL

Consider `CN1CCN(C2=Nc3ccccc3Oc3ccc(Cl)cc32)CC1` [LOXAPINE], for which the half-maximal activity concentration (AC50) – broadly, the concentration giving half of the maximal activity seen – is 0.0734 µM in assay [1], 8.8 µM in assay [2], above 10 µM in assay [3] and above 30 µM in assay [4].

Turning to `CCC(=O)O[C@]1(C(=O)CCl)[C@@H](C)C[C@H]2[C@@H]3C[C@H](F)C4=CC(=O)C=C[C@]4(C)[C@@]3(F)[C@@H](O)C[C@@]21C` [HALOBETASOL PROPIONATE], the AC50 is 13.1 µM in assay [1], above 30 µM in assay [5] and above 30 µM in assay [4].

`CCOC(=O)N1CSC[C@H]1C(=O)O` [TELMESTEINE]: the AC50 in assay [1], in assay [5] and in assay [4] was above 30 µM each time.

Consider `Cc1ncc(COP(=O)(O)O)c(C=O)c1O` [PYRIDOXAL PHOSPHATE ANHYDROUS], for which the AC50 in assay [1], in assay [5] and in assay [4] was above 30 µM throughout.

Consider `CCCc1nc(C(C)(C)O)c(C(=O)O)n1Cc1ccc(-c2ccccc2-c2nnn[nH]2)cc1` [OLMESARTAN], for which the concentration at half-maximal activity (AC50) in assay [1], in assay [5] and in assay [4] was above 30 µM throughout.

For the molecule `O=[N+]([O-])c1ccc(O)c2ncccc12` [NITROXOLINE], the AC50 is above 30 µM in assay [5], 8.8 µM in assay [6] and 7.6 µM in assay [7].

For the molecule `CC(N)Cc1ccc(O)cc1` (configuration not stated) [HYDROXYAMPHETAMINE], the AC50 in assay [1], in assay [5] and in assay [4] was above 30 µM each time.

Regarding `CC(C(=O)O)c1ccc(-c2ccccc2)c(F)c1` (configuration not stated) [FLURBIPROFEN], the AC50 in assay [1] was above 30 µM; in assay [5] it was above 30 µM; in assay [2] it was above 10 µM; in assay [3], above 10 µM.

Take `Cc1cc(NC(=O)C2=C(O)c3ccccc3S(=O)(=O)N2C)no1` [ISOXICAM]: the AC50 in assay [1], in assay [5] and in assay [4] was above 30 µM each time.

As to `NC(=O)OCC(O)COc1ccc(Cl)cc1` (configuration not stated) [CHLORPHENESIN CARBAMATE], the AC50 in assay [1], in assay [5] and in assay [4] was above 30 µM in each case.

For the molecule `NCC(CC(=O)O)c1ccccc1` (configuration not stated) [PHENIBUT], the AC50 in assay [1], in assay [5] and in assay [4] was above 30 µM in each case.

For `C=CCSCC1Nc2cc(Cl)c(S(N)(=O)=O)cc2S(=O)(=O)N1` (configuration not stated) [ALTHIAZIDE], the AC50 in assay [1], in assay [5] and in assay [4] was above 30 µM in each case.

On to `CN1C(=O)/C(=N\NC(N)=S)c2ccccc21` [METHISAZONE], for which the AC50 in assay [1] was 13.1 µM; in assay [5], above 30 µM; in assay [4], 26.4 µM.

In the case of `Cc1c(N(C)CS(=O)(=O)O)c(=O)n(-c2ccccc2)n1C` [METAMIZOLE], the AC50 in assay [1] and in assay [5] was above 30 µM in each case.

As for `COc1ccc(CN(CCN(C)C)c2ccccn2)cc1` [PYRILAMINE], the AC50 in assay [1] is above 30 µM; in assay [5], 7.07 µM.

On to `CCN(CC)C(=S)S` [DITIOCARB], for which the AC50 in assay [1] is above 1 µM; in assay [5] it was above 30 µM; in assay [4] it was above 30 µM.

As for `COc1cc(N2CCC(N3CCN(C)CC3)CC2)ccc1Nc1ncc(Cl)c(Nc2ccccc2P(C)(C)=O)n1` [BRIGATINIB], the AC50 in assay [1], in assay [5] and in assay [4] was above 30 µM throughout.

As for `COC(=O)c1ccc(O)cc1` [METHYLPARABEN], the AC50 in assay [1] and in assay [5] was above 30 µM each time.

Regarding `COc1cc2c(cc1OC)CC(=O)N(CCCN(C)C[C@H]1Cc3cc(OC)c(OC)cc31)CC2` [IVABRADINE], the AC50 in assay [1], in assay [5] and in assay [4] was above 30 µM in each case.

For the molecule `C[C@H](Cc1cc2c(c(C(N)=O)c1)N(CCCO)CC2)NCCOc1ccccc1OCC(F)(F)F` [SILODOSIN], the AC50 in assay [1] is 0.003 µM; in assay [5], 1.28 µM; in assay [4], above 30 µM.

Take `CN(C)CCOC(c1ccccc1)c1ccc(Br)cc1` (configuration not stated) [BROMODIPHENHYDRAMINE]: the values for the AC50 in assay [1], in assay [5] and in assay [4] were above 10 µM, 8.38 µM and above 30 µM, respectively.

As to `CCN(CCCc1ccccc1)CCCc1ccccc1` [ALVERINE], the values for the half-maximal activity concentration (AC50) in assay [1], in assay [5] and in assay [4] were 0.978 µM, 1.96 µM and above 30 µM, respectively.

With `c1ccc2c(c1)CCc1ccccc1N2C1CN2CCC1CC2` (configuration not stated) [QUINUPRAMINE], the AC50 in assay [1] is 2.41 µM; in assay [5], 13.2 µM; in assay [4], above 30 µM.

Consider `Cc1cc(N)c2ccccc2[n+]1CCCCCCCCCC[n+]1c(C)cc(N)c2ccccc21`, for which the figures for the AC50 in assay [1], in assay [5] and in assay [4] were 3.21 µM, 0.464 µM and above 30 µM, respectively.

Consider `CC(C)(C)NC[C@H](O)COc1cccc2c1CCCC2=O` [LEVOBUNOLOL], for which the AC50 in assay [1] and in assay [5] was above 30 µM each time.

For `CC(=O)O[C@]1(C(C)=O)CC[C@H]2[C@@H]3C=C(Cl)C4=CC(=O)CC[C@]4(C)[C@H]3CC[C@@]21C` [CHLORMADINONE ACETATE], the results for the AC50 in assay [1] and in assay [5] were 18 µM and above 30 µM, respectively.

Consider `CC1=CCC(C(C)(C)O)CC1O` (configuration not stated) [SOBREROL], for which the half-maximal activity concentration (AC50) in assay [1], in assay [5] and in assay [4] was above 30 µM in each case.

Turning to `Cc1cnc(C(=O)NCCc2ccc(S(=O)(=O)NC(=O)NC3CCCCC3)cc2)cn1` [GLIPIZIDE], the half-maximal activity concentration (AC50) in assay [1] is above 3 µM; in assay [5], above 30 µM; in assay [2], above 10 µM.

With `CCOC(=O)[C@H](CCc1ccccc1)N[C@@H](C)C(=O)N(CC(=O)O)C1Cc2ccccc2C1`, the AC50 in assay [1], in assay [5] and in assay [4] was above 30 µM throughout.

As to `CC(C)N(CCNC(=O)CN1CCCC1=O)C(C)C`, the AC50 in assay [1], in assay [5] and in assay [4] was above 30 µM in each case.
